# In ChEMBL document CHEMBL1121615, “Synthesis and analgesic properties of some conformationally restricted analogues of profadol” (1980):
# Columns and labels:
# Format in all cases: functional
# Mus musculus [1] = species: Mus musculus; assay: animal or person
# Description: The ED50 value of compound was measured for 50% inhibition for analgesia in mice by the hotplate method
# Mus musculus [2] = assay: Analgesia was determined by writhing test in mice after 30 mg/kg oral administration; Range is 50-74%.
# Mus musculus [3] = assay: Analgesia was determined by writhing test in mice after 10 mg/kg oral administration
# Mus musculus [4] = assay: Analgesia was determined by writhing test in mice after 30 mg/kg oral administration
# Mus musculus [5] = assay: Analgesia was determined by writhing test in mice after 100 mg/kg oral administration; Range is 25-49%.
# Mus musculus [6] = assay: The ED50 value of compound was measured for 50% inhibition for analgesia in mice after oral administration by the hotplate method
# Mus musculus [7] = assay: Analgesia was determined by writhing test in mice after 100 mg/kg oral administration; Range is 50-74%.
# Mus musculus [8] = assay: Analgesia was determined by writhing test in mice after 100 mg/kg oral administration; Range is 75-99%.
compound,measurement,setting,value
Br.CN1CCC2(CCCc3cc(O)ccc32)C1 (stereo not given),ED50,Mus musculus [1],> 50 mg/kg
same,inhibition in vivo at 30 mg/kg,Mus musculus [2],50%
CN1CC[C@]23c4c5ccc(O)c4O[C@H]2[C@@H](O)C=C[C@H]3[C@H]1C5.Cl [MORPHINE HYDROCHLORIDE],ED50,Mus musculus [1],1.2 mg/kg
same,inhibition in vivo at 10 mg/kg,Mus musculus [3],100%
Cl.c1ccc2c(c1)CCCC21CCNC1 (stereo not given),ED50,Mus musculus [1],13.3 mg/kg
same,inhibition in vivo at 30 mg/kg,Mus musculus [4],100%
CN1CCC2(CCCc3c(O)cccc32)C1 (stereo not given),inhibition in vivo at 100 mg/kg,Mus musculus [5],25%
COc1ccc2c(c1)C1(CCC2)CCNC1 (stereo not given),inhibition in vivo at 100 mg/kg,Mus musculus [5],25%
Br.CN1CCC2(CCCc3ccc(O)cc32)C1 (stereo not given),ED50,Mus musculus [1],42.8 mg/kg
same,inhibition in vivo at 30 mg/kg,Mus musculus [2],50%
Br.Oc1cccc2c1CCCC21CCNC1 (stereo not given),ED50,Mus musculus [6],> 50 mg/kg
same,inhibition in vivo at 30 mg/kg,Mus musculus [2],50%
Oc1ccc2c(c1)C1(CCC2)CCNC1 (stereo not given),inhibition in vivo at 100 mg/kg,Mus musculus [7],50%
COc1ccc2c(c1)CCCC21CCN(C)C1 (stereo not given),inhibition in vivo at 100 mg/kg,Mus musculus [7],50%
CCCC1(c2cccc(O)c2)CCN(C)C1 (stereo not given) [PROFADOL],ED50,Mus musculus [6],3.9 mg/kg
same,inhibition in vivo at 10 mg/kg,Mus musculus [3],100%
COc1cccc2c1CCCC21CCN(C)C1 (stereo not given),inhibition in vivo at 100 mg/kg,Mus musculus [8],75%
Oc1ccc2c(c1)CCCC21CCNC1 (stereo not given),inhibition in vivo at 100 mg/kg,Mus musculus [7],50%
COc1ccc2c(c1)C1(CCC2)CCN(C)C1 (stereo not given),ED50,Mus musculus [6],> 50 mg/kg
same,inhibition in vivo at 30 mg/kg,Mus musculus [2],50%
COc1cccc2c1CCCC21CCNC1 (stereo not given),ED50,Mus musculus [1],48.6 mg/kg
same,inhibition in vivo at 30 mg/kg,Mus musculus [2],50%
CN1CCC2(CCCc3ccccc32)C1.Cl (stereo not given),ED50,Mus musculus [1],12.1 mg/kg
same,inhibition in vivo at 30 mg/kg,Mus musculus [4],100%
COc1ccc2c(c1)CCCC21CCNC1 (stereo not given),inhibition in vivo at 100 mg/kg,Mus musculus [5],25%
